According to patent US4431815A, “1-[3-(2,4-Dichlorophenyl)propyl]imidazole and salts thereof” (Burroughs Wellcome Co., priority 1983, dated 1984):
Read-outs that look alike come from different tables or passages of the source.

Key:
TXA2 synthetase = target: T1, TXA2 synthetase (Equus caballus, UniProt A0A9L0T8T9); test: Inhibition of thromboxane (TXA2) synthetase in homogenised horse platelets, labelled arachidonic acid, thromboxane B2 measured by TLC; format: biochemical; details: horse platelet homogenate, pH 7.4
T1 construct: labelled arachidonic acid substrate, thromboxane B2 measured by TLC
T1 sequence (A0A9L0T8T9 2-534): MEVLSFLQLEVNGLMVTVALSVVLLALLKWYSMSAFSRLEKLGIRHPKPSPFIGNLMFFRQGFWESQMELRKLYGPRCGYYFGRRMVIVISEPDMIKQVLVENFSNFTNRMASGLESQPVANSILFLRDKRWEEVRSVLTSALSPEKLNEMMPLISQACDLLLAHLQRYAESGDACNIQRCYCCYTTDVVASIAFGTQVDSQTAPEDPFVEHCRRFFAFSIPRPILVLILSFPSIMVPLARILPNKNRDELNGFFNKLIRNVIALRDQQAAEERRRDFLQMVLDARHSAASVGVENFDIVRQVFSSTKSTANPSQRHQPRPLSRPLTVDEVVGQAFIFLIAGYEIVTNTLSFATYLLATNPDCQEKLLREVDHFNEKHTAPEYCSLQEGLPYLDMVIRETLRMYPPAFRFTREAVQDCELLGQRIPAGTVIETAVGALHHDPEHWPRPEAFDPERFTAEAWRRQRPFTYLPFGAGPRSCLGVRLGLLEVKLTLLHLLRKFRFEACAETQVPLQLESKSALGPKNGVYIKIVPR
Experimental: (§1) Horse platelets were prepared from whole horse blood by differential centrifugation. Approximately 10^6 platelets were homogenised in 1 ml 100 mM Tris buffer pH 7.4. Various concentrations of active compound were added and the reaction sets incubated for 5 minutes at ambient temperature. To each tube was added 20 nM of arachidonic acid containing 10^6 DPM of labelled arachidonic acid and the tubes incubated for 3 minutes at 37° C. in a shaking water bath. After incubation the radioactive products were extracted from the acidified aqueous phase with ethyl acetate and after concentration resolved by thin layer chromatography on silica gel with chloroform/methanol/acetic acid/water (90:8:1:0.8) as a developing solvent. The amount of thromboxane produced was measured by scraping off the radioactive zone corresponding to thromboxane B2 and estimating the radioactivity in a liquid scintillation counter.
The concentration of active compound to reduce the enzyme activity by 50% (ED50) was established.
By the method of Biological results Example 7 above the ED50 and selectivity values were obtained for the compounds set out in Table B.

PGE, PGF and PGD = test: Selectivity: amount of PGE, PGF and PGD produced (anti-aggregating prostaglandins), horse platelets; format: biochemical; details: horse platelet homogenate
Experimental: as §1, with “Various concentrations of active compound were added and the reaction sets incubated for 5 minutes at ambient temperature.” left out
The greater the selectivity, the more of the anti-aggregating prostaglandins are produced.
The ED50 and Selectivity results are shown in Table A in which 0 indicates no selectivity; + low selectivity: ++ medium selectivity; +++ high selectivity, and ++++ exceptionally high selectivity.

platelet aggregation = test: Inhibition of platelet aggregation in vivo
platelet clumps = test: Disaggregation of platelet clumps
[1] = system: enzymic conversion of the endoperoxides (PGG2 and PGH2) to thromboxane A2 by platelet microsomes; details: Moncada et al., Prostaglandins 1977; cited from earlier work
[2] = Table B, read-out: ED50 (concentration of active compound to reduce the enzyme activity by 50%) (converted)

IC50 (TXA2 synthetase; [2]) [µM]	SMILES	SELECTIVITY (PGE, PGF and PGD; Table B)	also measured
–	c1ccc(Cn2ccnc2)cc1 [1-benzylimidazole, 1-Benzylimidazole]	+++	IC50 (TXA2 synthetase; read-out: ED50 (concentration of active compound to reduce the enzyme activity by 50%), Table B): 31.6 µM; inhibiting platelet aggregation in vivo (platelet aggregation): capable of inhibiting platelet aggregation in vivo; disaggregating platelet clumps (platelet clumps): capable of disaggregating platelet clumps
159	Fc1ccc(Cn2ccnc2)cc1 [1-(4-fluorobenzyl)imidazole, 1-(4-Fluorobenzyl)imidazole]	–	–
–	Clc1ccc(C=CCn2ccnc2)c(Cl)c1 [1-[3-(2,4-Dichlorophenyl)prop-2-enyl]imidazole]	–	SELECTIVITY (PGE, PGF and PGD; Table A): +
19.4	Brc1ccc(Cn2ccnc2)cc1 [1-(4-bromobenzyl)imidazole, 1-(4-Bromobenzyl)imidazole]	–	–
–	c1c[nH]cn1 [Imidazole]	–	inhibition of the enzymic conversion of endoperoxides to thromboxane A2 [1]: some degree of inhibition
< 26.8	CC(Cn1ccnc1)c1ccccc1 (stereo not drawn) [1-(2-phenylpropyl)imidazole, 1-(2-Phenylpropyl)imidazole]	–	–
2.35	Clc1ccc(CCCn2ccnc2)c(Cl)c1 [1-[3-(2,4-Dichlorophenyl)propyl]imidazole]	++	IC50 (TXA2 synthetase; Table A, read-out: ED50 (concentration of active compound to reduce the enzyme activity by 50%) (converted)): 1.96 µM; SELECTIVITY (PGE, PGF and PGD; Table A): ++; inhibiting platelet aggregation in vivo (platelet aggregation): capable of inhibiting platelet aggregation in vivo; disaggregating platelet clumps (platelet clumps): capable of disaggregating platelet clumps
2.6	Clc1ccccc1Cn1ccnc1 [1-(2-chlorobenzyl)imidazole]	++	–
–	Clc1cccc(Cl)c1C=CCn1ccnc1 [1-[3-(2,6-Dichlorophenyl)prop-2-enyl]imidazole]	–	SELECTIVITY (PGE, PGF and PGD; Table A): +
92.3	C(=Cc1ccccc1)Cn1ccnc1 [1-(3-phenylprop-2-enyl)imidazole, 1-(3-Phenylprop-2-enyl)imidazole]	–	–
271	O=[N+]([O-])c1cccc(Cn2ccnc2)c1 [1-(3-nitrobenzyl)imidazole, 1-(3-Nitrobenzyl)imidazole]	–	–
174	Cc1ccc(Cn2ccnc2)cc1 [1-(4-methylbenzyl)imidazole, 1-(4-Methylbenzyl)imidazole]	+	–
–	Cc1ccc(Cn2ccnc2)cc1C [1-(3,4-Dimethylbenzyl)imidazole]	–	SELECTIVITY (PGE, PGF and PGD; Table A): ++
–	Cc1cc(C)c(Cn2ccnc2)c(C)c1 [1-(2,4,6-Trimethylbenzyl)imidazole, 1-(2,4,6-trimethylbenzyl)imidazole]	–	SELECTIVITY (PGE, PGF and PGD; Table A): ++; inhibiting platelet aggregation in vivo (platelet aggregation): capable of inhibiting platelet aggregation in vivo; disaggregating platelet clumps (platelet clumps): capable of disaggregating platelet clumps
–	Cn1ccnc1 [1-methylimidazole]	–	inhibition of the enzymic conversion of endoperoxides to thromboxane A2 [1]: some degree of inhibition
~57.7	Nc1cccc(Cn2ccnc2)c1 [1-(3-aminobenzyl)imidazole, 1-(3-Aminobenzyl)imidazole]	++	–
61.2	Brc1cccc(Cn2ccnc2)c1 [1-(3-bromobenzyl)imidazole, 1-(3-Bromobenzyl)imidazole]	+++	–
8.81 to 35.2	Clc1ccc(Cn2ccnc2)c(Cl)c1 [1-(2,4-dichlorobenzyl)imidazole, 1-(2,4-Dichlorobenzyl)imidazole]	–	inhibiting platelet aggregation in vivo (platelet aggregation): capable of inhibiting platelet aggregation in vivo; disaggregating platelet clumps (platelet clumps): capable of disaggregating platelet clumps
116	c1ccc(CCn2ccnc2)cc1 [1-(2-phenylethyl)imidazole, 1-(2-Phenylethyl)imidazole]	+	–
~17.4	Cc1cccc(-n2ccnc2)c1C [1-(2,3-dimethylphenyl)imidazole]	++	–
0.499	CC(C)c1ccc(Cn2ccnc2)cc1 [1-(4-i-propylbenzyl)imidazole, 1-(4-i-Propylbenzyl)imidazole]	0	–
134	c1ccc(CCCn2ccnc2)cc1 [1-(3-phenylpropyl)imidazole, 1-(3-Phenylpropyl)imidazole]	+	–
